Target: VEGFR2 (Homo sapiens (Human), UniProt P35968)
Experiment: VEGFR2 Kinase Assay (biochemical KDR kinase assay, poly-Glu-Tyr ELISA)
Conditions: for IC50: purified cytoplasmic domain KDR protein, 2.7 μM ATP, 15 minute incubation at 30° C., read-out: VEGFR2 Enzyme IC50; for VEGFR2 potency as shown in this assay (in words): statement in words on the Table 2 data
Protocol: Biochemical KDR kinase assays were performed in 96 well microtiter plates that were coated overnight with 75 μg/well of poly-Glu-Tyr (4:1) in 10 mM Phosphate Buffered Saline (PBS), pH 7.4. The coated plates were washed with 2 mLs per well PBS+0.05% Tween-20 (PBS-T), blocked by incubation with PBS containing 1% BSA, then washed with 2 mLs per well PBS-T prior to starting the reaction. Reactions were carried out in 100 μL reaction volumes containing 2.7 μM ATP in kinase buffer (50 mM Hepes buffer pH 7.4, 20 mM MgCl2, 0.1 mM MnCl2 and 0.2 mM Na3VO4). […] Reactions were initiated by the addition 20 ul per well of kinase buffer containing 200-300 ng purified cytoplasmic domain KDR protein (BPS Bioscience, San Diego, Calif.). Following a 15 minute incubation at 30° C., the reactions were washed 2 mLs per well PBS-T. 100 μl of a monoclonal anti-phosphotyrosine antibody-peroxidase conjugate diluted 1:10,000 in PBS-T was added to the wells for 30 minutes. Following a 2 mLs per well wash with PBS-Tween-20, 100 μl of O-Phenylenediamine Dihydrochloride in phosphate-citrate buffer, containing urea hydrogen peroxide, was added to the wells for 7-10 minutes as a colorimetric substrate for the peroxidase. The reaction was terminated by the addition of 100 μl of 2.5N H2SO4 to each well and read using a microplate ELISA reader set at 492 nm. IC50 values for compound inhibition were calculated directly from graphs of optical density (arbitrary units) versus compound concentration following subtraction of blank values.

VEGFR2, sequence (P35968 786-1356): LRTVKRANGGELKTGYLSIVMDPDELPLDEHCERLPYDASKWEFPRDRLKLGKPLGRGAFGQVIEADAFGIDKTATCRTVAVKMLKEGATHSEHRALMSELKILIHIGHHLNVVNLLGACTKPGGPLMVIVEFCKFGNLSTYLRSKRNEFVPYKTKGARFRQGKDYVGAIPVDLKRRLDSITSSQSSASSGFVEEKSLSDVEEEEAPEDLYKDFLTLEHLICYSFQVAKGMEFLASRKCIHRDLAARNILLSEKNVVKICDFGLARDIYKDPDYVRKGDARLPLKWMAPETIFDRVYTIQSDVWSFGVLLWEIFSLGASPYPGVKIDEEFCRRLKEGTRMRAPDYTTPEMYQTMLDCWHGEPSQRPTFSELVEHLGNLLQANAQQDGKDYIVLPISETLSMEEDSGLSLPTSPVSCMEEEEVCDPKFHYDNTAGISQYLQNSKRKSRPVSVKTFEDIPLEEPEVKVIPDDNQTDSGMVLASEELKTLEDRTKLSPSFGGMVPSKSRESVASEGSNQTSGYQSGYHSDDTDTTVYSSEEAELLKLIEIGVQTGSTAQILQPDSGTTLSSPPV

SMILES | IC50 [µM] | VEGFR2 potency as shown in this assay (in words)
O=C1Nc2ccccc2C2=NCC(c3ccc(Cl)cc3)CN12 (stereo not drawn) [Example 1, 3-(4-Chlorophenyl)-2,3,4,7-tetrahydro-6H-pyrimido[1,2-c]quinazolin-6-one] | > 10 | 
Nc1cccc(C2CN=C3c4ccccc4NC(=O)N3C2)c1 (stereo not drawn) [Example 2, 3-(3-Aminophenyl)-2,3,4,7-tetrahydro-6H-pyrimido[1,2-c]quinazolin-6-one] | > 10 | 
Nc1ccc(C2CN=C3c4ccccc4NC(=O)N3C2)cc1 (stereo not drawn) [Example 4, 3-(4-Aminophenyl)-2,3,4,7-tetrahydro-6H-pyrimido[1,2-c]quinazolin-6-one] | > 10 | 
O=C(Nc1ccccc1)Nc1ccc(C2CN=C3c4ccccc4NC(=O)N3C2)cc1 (stereo not drawn) [Example 6, 1-[4-(6-Oxo-3,4,6,7-tetrahydro-2H-pyrimido[1,2-c]quinazolin-3-yl)phenyl]-3-phenylurea] | 4.75 | 
CSc1cccc(NC(=O)Nc2ccc(C3CN=C4c5ccccc5NC(=O)N4C3)cc2)c1 (stereo not drawn) [Example 8, 1-[3-(Methylthio)phenyl]-3-[4-(6-oxo-3,4,6,7-tetrahydro-2H-pyrimido[1,2-c]quinazolin-3-yl)phenyl]urea] | 1.8 | 
Cc1ccc(NC(=O)Nc2ccc(C3CN=C4c5ccccc5NC(=O)N4C3)cc2)cc1 (stereo not drawn) [Example 11, 1-(4-Methylphenyl)-3-[4-(6-oxo-3,4,6,7-tetrahydro-2H-pyrimido[1,2-c]quinazolin-3-yl)phenyl]urea] | 4.03 | 
COc1ccc(NC(=O)Nc2ccc(C3CN=C4c5ccccc5NC(=O)N4C3)cc2)cc1 (stereo not drawn) [Example 12, 1-(4-Methoxyphenyl)-3-[4-(6-oxo-3,4,6,7-tetrahydro-2H-pyrimido[1,2-c]quinazolin-3-yl)phenyl]urea] | > 10 | 
CC(C)NC(=O)Nc1ccc(C2CN=C3c4ccccc4NC(=O)N3C2)cc1 (stereo not drawn) [Example 14, 1-Isopropyl-3-[4-(6-oxo-3,4,6,7-tetrahydro-2H-pyrimido[1,2-c]quinazolin-3-yl)phenyl]urea] |  | lack of potency
Cc1ccoc1C(=O)Nc1cccc(C2CN=C3c4ccccc4NC(=O)N3C2)c1 (stereo not drawn) [Example 15, 3-Methyl-N-[3-(6-oxo-3,4,6,7-tetrahydro-2H-pyrimido[1,2-c]quinazolin-3-yl)phenyl]-2-furamide] | 6.38 | excellent VEGFR2 potency
Cc1ccoc1C(=O)Nc1ccc(C2CN=C3c4ccccc4NC(=O)N3C2)cc1 (stereo not drawn) [Example 16, 3-Methyl-N-[4-(6-oxo-3,4,6,7-tetrahydro-2H-pyrimido[1,2-c]quinazolin-3-yl)phenyl]-2-furamide] | > 10 | 
O=C(Nc1ccc(C2CN=C3c4ccccc4NC(=O)N3C2)cc1)c1cccc(C(F)(F)F)c1 (stereo not drawn) [Example 17, N-[4-(6-oxo-3,4,6,7-tetrahydro-2H-pyrimido[1,2-c]quinazolin-3-yl)phenyl]-3-(trifluoromethyl)benzamide] | > 10 | 
CNc1ccc(C2CN=C3c4ccc(C(=O)OC)cc4NC(=O)N3C2)cc1 (stereo not drawn) [Example 18, Methyl 3-[4-(methylamino)phenyl]-6-oxo-3,4,6,7-tetrahydro-2H-pyrimido[1,2-c]quinazoline-9-carboxylate] | > 10 | 
COC(=O)c1ccc2c(c1)NC(=O)N1CC(c3ccc(N(C)C(=O)CN4CCN(C)CC4)cc3)CN=C21 (stereo not drawn) [Example 19, Methyl 3-(4-{methyl[(4-methylpiperazin-1-yl)acetyl]amino}phenyl)-6-oxo-3,4,6,7-tetrahydro-2H-pyrimido[1,2-c]quinazoline-9-carboxylate] | > 10 | lack of potency
CN1CCN(CC(=O)Nc2ccc(C3CN=C4c5ccccc5NC(=O)N4C3)cc2)CC1 (stereo not drawn) [Example 20, 2-(4-Methylpiperazin-1-yl)-N-[4-(6-oxo-3,4,6,7-tetrahydro-2H-pyrimido[1,2-c]quinazolin-3-yl)phenyl]acetamide] | > 10 | lack of potency
COC(=O)c1ccc2c(c1)NC(=O)N1CC(c3ccc(N(C)C(=O)Nc4cc(C(F)(F)F)ccc4F)cc3)CN=C21 (stereo not drawn) [Example 21, Methyl 3-{4-[({[2-fluoro-5-(trifluoromethyl)phenyl]amino}carbonyl)(methyl)amino]phenyl}-6-oxo-3,4,6,7-tetrahydro-2H-pyrimido[1,2-c]quinazoline-9-carboxylate] | > 10 | 
Cc1cc(C2CN=C3c4ccccc4NC(=O)N3C2)ccc1N (stereo not drawn) [Example 22, 3-(4-amino-3-methylphenyl)-2,3,4,7-tetrahydro-6H-pyrimido[1,2-c]quinazolin-6-one] | > 10 | 
Cc1cc(N)ccc1C1CN=C2c3ccccc3NC(=O)N2C1 (stereo not drawn) [Example 23, 3-(4-amino-2-methylphenyl)-2,3,4,7-tetrahydro-6H-pyrimido[1,2-c]quinazolin-6-one] | > 10 | 

Continued by falling IC50, values first:

IC50 [µM] | VEGFR2 potency as shown in this assay (in words) | SMILES
1.5 |  | Cc1cccc(NC(=O)Nc2ccc(C3CN=C4c5ccccc5NC(=O)N4C3)c(C)c2)c1 (stereo not drawn) [Example 24, 1-[3-methyl-4-(6-oxo-3,4,6,7-tetrahydro-2H-pyrimido[1,2-c]quinazolin-3-yl)phenyl]-3-(3-methylphenyl)urea]
1.47 |  | COc1cccc(NC(=O)Nc2ccc(C3CN=C4c5ccccc5NC(=O)N4C3)cc2)c1 (stereo not drawn) [Example 13, 1-(3-Methoxyphenyl)-3-[4-(6-oxo-3,4,6,7-tetrahydro-2H-pyrimido[1,2-c]quinazolin-3-yl)phenyl]urea]
0.76 | excellent VEGFR2 potency | O=C(Nc1cccc(C2CN=C3c4ccccc4NC(=O)N3C2)c1)Nc1cc(C(F)(F)F)ccc1F (stereo not drawn) [Example 3, 1-[2-Fluoro-5-(trifluoromethyl)phenyl]-3-[3-(6-oxo-3,4,6,7-tetrahydro-2H-pyrimido[1,2-c]quinazolin-3-yl)phenyl]urea]
0.39 |  | Cc1cc(NC(=O)Nc2cc(C(F)(F)F)ccc2F)ccc1C1CN=C2c3ccccc3NC(=O)N2C1 (stereo not drawn) [Example 25, 1-[2-fluoro-5-(trifluoromethyl)phenyl]-3-[3-methyl-4-(6-oxo-3,4,6,7-tetrahydro-2H-pyrimido[1,2-c]quinazolin-3-yl)phenyl]urea]
0.36 | excellent VEGFR2 potency | O=C(Nc1ccc(C2CN=C3c4ccccc4NC(=O)N3C2)cc1)Nc1cc(C(F)(F)F)ccc1F (stereo not drawn) [Example 5, 1-[2-Fluoro-5-(trifluoromethyl)phenyl]-3-[4-(6-oxo-3,4,6,7-tetrahydro-2H-pyrimido[1,2-c]quinazolin-3-yl)phenyl]urea]
0.34 | excellent VEGFR2 potency | O=C(Nc1ccc(C2CN=C3c4ccccc4NC(=O)N3C2)cc1)Nc1ccc(Cl)c(C(F)(F)F)c1 (stereo not drawn) [Example 7, 1-[4-Chloro-3-(trifluoromethyl)phenyl]-3-[4-(6-oxo-3,4,6,7-tetrahydro-2H-pyrimido[1,2-c]quinazolin-3-yl)phenyl]urea]
0.33 | excellent VEGFR2 potency | Cc1cccc(NC(=O)Nc2ccc(C3CN=C4c5ccccc5NC(=O)N4C3)cc2)c1 (stereo not drawn) [Example 10, 1-(3-Methylphenyl)-3-[4-(6-oxo-3,4,6,7-tetrahydro-2H-pyrimido[1,2-c]quinazolin-3-yl)phenyl]urea]
0.25 | excellent VEGFR2 potency | O=C(Nc1ccc(C2CN=C3c4ccccc4NC(=O)N3C2)cc1)Nc1cccc(Br)c1 (stereo not drawn) [Example 9, 1-(3-Bromophenyl)-3-[4-(6-oxo-3,4,6,7-tetrahydro-2H-pyrimido[1,2-c]quinazolin-3-yl)phenyl]urea]
